This note sets out measurements from the Deep4Chem optical property database.

SMILES strings stand for the structures.

A short description of the data set: photoluminescence quantum yield (fraction); solvent given as SMILES.

For `F[B-]1(F)n2cccc2C(c2c3ccccc3cc3ccccc23)=C2C=CC=[N+]21`, the photoluminescence quantum yield runs as follows: (in CCCCCC) 0.135; (in Cc1ccccc1) 0.008; (in ClCCl) 0.002.

Where the note is “in Cc1ccccc1”, `CC1=C(c2cccs2)C(C)=[N+]2C1=C(c1ccc(OS(=O)(=O)c3ccc([N+](=O)[O-])cc3[N+](=O)[O-])cc1)c1c(C)c(-c3cccs3)c(C)n1[B-]2(F)F` showed a photoluminescence quantum yield of 0.059.

As to `Clc1nc(Cl)nc(Nc2ccc3cc4ccccc4cc3c2)n1`, the photoluminescence quantum yield reads like this: (in C1COCCO1) 0; (in CC#N) 0; (in CCCCOCCCC) 0; (in CCOC(C)=O) 0.

Take `Nc1ccc2c(-c3ccccc3C(=O)[O-])c3ccc(=[NH2+])cc-3oc2c1`: the photoluminescence quantum yield (in CC#N) came out at 0.95, the photoluminescence quantum yield (in CCO) amounted to 0.88, the photoluminescence quantum yield (in CN(C)C=O) amounted to 0.84 and the photoluminescence quantum yield (in O) was 0.85.

Consider `CCCCN1C(=O)C(=C/C=C/C=C2N(CCCC)c3ccccc3N2CCCC)C(=O)N(CCCC)C1=S`, for which the photoluminescence quantum yield by setting is: (in CCCCCC) 0.115; (in CCO) 0.013; (in CN(C)C=O) 0.023; (in Cc1ccccc1) 0.168; (in ClC(Cl)Cl) 0.046; (in ClCCl) 0.032.

The compound `CN(C)c1ccc(-c2ccc(-c3cc(N4CCCCC4)c(C#N)c4c3-c3ccccc3CC4)cc2)cc1` registered a photoluminescence quantum yield (in C1CCOC1) of 0.68.

Regarding `c1ccc(-c2nc3c4ccccc4c4ccccc4c3n2-c2ccccc2)cc1`, the photoluminescence quantum yield (in C1CCOC1) is 0.588.

On to `Nc1nc2ccccc2[n+]([O-])n1`, for which the photoluminescence quantum yield stood at 0.169 (in CC#N) and 0.0367 (in O).

Where the note is “in ClCCl”, `c1ccc(N(c2ccccc2)c2ccc(-c3ncnc4ccccc34)cc2)cc1` gave a photoluminescence quantum yield of 0.93.

Regarding `N#C/C(=C\c1ccc(C#N)cc1)c1nc(-c2ccc(Cl)cc2)c(-c2ccccc2)s1`, for the setting “in CC#N”, the photoluminescence quantum yield was determined as 0.114.

As to `COc1ccc(C2=C(c3ccc(OC)cc3)C(C)(C)c3c2ccc2ccccc32)cc1`, the photoluminescence quantum yield (in C1CCCCC1) came out at 0.11.

Consider `CCCCn1c(-c2ccc(-c3nnc(-c4ccc5ccccc5c4)o3)cc2)nc2c3ccccc3c3ccccc3c21`, for which the photoluminescence quantum yield (in ClCCl) came to 0.75.

As to `Nc1cccc2ccccc12`, the photoluminescence quantum yield (in C1CCCCC1) is 0.6.

Take `CC1(C)c2ccccc2N(c2cc3c4ccccc4n4c5ccccc5c(c2)c34)c2ccccc21`: the photoluminescence quantum yield (in O=P(c1ccccc1)(c1ccccc1)c1ccccc1Oc1ccccc1P(=O)(c1ccccc1)c1ccccc1) came to 0.95.

Compound `C[Si](C)(C)C#C[Si](c1c2ccccc2cc2ccccc12)(c1c2ccccc2cc2ccccc12)c1c2ccccc2cc2ccccc12` showed a photoluminescence quantum yield (in ClC(Cl)Cl) of 0.04.

In the case of `COc1c2ccccc2c(OC)c2c(C#CC(C)(C)C)c3cc4ccccc4cc3c(C#CC(C)(C)C)c12`, the photoluminescence quantum yield is 0.11 (in C1CCOC1), 0.1 (in Cc1ccccc1) and 0.09 (in ClCCl).

As to `CSc1ccc2c(c1)N(CCCN(C)C)c1ccccc1S2`, the photoluminescence quantum yield is, setting by setting: (in CC#N) 0.003; (in CO) 0.003; (in O) 0.003.

For the compound `CC(C)(C)OC(=O)COc1ccc2c(c1)oc(=O)c1c(=O)oc3ccccc3c12`, the photoluminescence quantum yield is, setting by setting: (in CS(C)=O) 0.31; (in ClCCl) 0.008.

Take `c1coc(-c2nc3ccccc3[nH]2)c1`: the photoluminescence quantum yield runs as follows: (in C1CCOC1) 0.87; (in CCCCCC) 0.95; (in CCO) 0.93; (in CCOCC) 0.94; (in CO) 0.97; (in ClC(Cl)Cl) 0.28. Moreover, the photoluminescence quantum yield by setting is: (in ClCCl) 0.86; (in O) 0.96.

On to `CC(C)(C)NC(=O)c1cc2ccc3cccc4ccc(c1C(=O)NC(C)(C)C)c2c34`, for which the photoluminescence quantum yield (in ClC(Cl)Cl) stood at 0.39.

In the case of `C1=CC2CC1C1C2[C@@]2(c3ccccc3)N=NC1(c1ccccc1)[C@@H]1C[C@H]12` (some centres not stated), where the note is “in CC#N”, the photoluminescence quantum yield came out at 0.038.

For the compound `CC(C)(C)NC1=C2C=CC=[N+]2[B-](F)(F)n2cccc21`, the photoluminescence quantum yield by setting is: (in C1CCCCC1) 0.63; (in CC(C)=O) 0.002; (in CCO) 0.002; (in CCOC(C)=O) 0.012; (in CO) 0.001; (in OCC(F)(F)F) 0.006.

For `C(=C1c2ccccc2-c2ccccc21)c1ccc(-c2ccc(C=C3c4ccccc4-c4ccccc43)cc2)cc1`, where the note is “in C1CCOC1”, the photoluminescence quantum yield was found to be 0.0015.

With `F[B-]1(F)n2c(Oc3ccccc3)c(Cl)c(Br)c2C(Oc2ccccc2)=C2C(Br)=C(Cl)C(Oc3ccccc3)=[N+]21`, the photoluminescence quantum yield (in ClCCl) is 0.68.

`COc1ccc(/C=C/c2cc(/C=C/c3ccc(OC)cc3)nc(/C=C/c3ccc4cc(OC)ccc4c3)n2)cc1` yielded a photoluminescence quantum yield (in ClCCl) of 0.11.

On to `Cc1ccc(C2=C3C=CC(c4ccccc4)=[N+]3[B-](F)(F)n3c(Cl)ccc32)cc1`, for which the photoluminescence quantum yield reads like this: (in C1CCCCC1) 0.076; (in C1CCOC1) 0.084; (in C1COCCO1) 0.079; (in CCOC(C)=O) 0.046; (in CO) 0.037; (in Cc1ccccc1) 0.13. Also, where the note is “in ClC(Cl)Cl”, the photoluminescence quantum yield came out at 0.095.

Compound `COc1cc(OC)c2c(c1)C(=O)c1ccccc1-2` came in with a photoluminescence quantum yield (in C1CCCCC1) of 0.026, a photoluminescence quantum yield (in CC#N) of 0.0012 and a photoluminescence quantum yield (in CCO) of 0.

With `CC(C)(C)c1ccc2c(c1)c1cc(C(C)(C)C)ccc1n2-c1cc(C(=O)c2cccnc2)cc(-n2c3ccc(C(C)(C)C)cc3c3cc(C(C)(C)C)ccc32)c1`, the photoluminescence quantum yield (in Cc1ccccc1) was 0.07 and the photoluminescence quantum yield (in c1cc(-c2cccc(-n3c4ccccc4c4ccccc43)c2)cc(-n2c3ccccc3c3ccccc32)c1) was determined as 0.92.

As to `CCN(CC)c1ccc2c(-c3ccccc3C(=O)O)c3c([o+]c2c1)/C(=C/c1nc(-c2ccccc2)n2ccccc12)CCC3`, the photoluminescence quantum yield (in ClCCl) came out at 0.4.

For the setting “in ClCCl”, `C1=Cc2ccc(N(c3ccccc3)c3ccccc3)cc2C2(c3cc(N(c4ccccc4)c4ccccc4)ccc31)c1ccccc1-c1ccccc12` displayed a photoluminescence quantum yield of 0.9.

Consider `C(#Cc1ncnc2ccccc12)c1ccc(N(c2ccccc2)c2ccccc2)cc1`, for which, under “in ClCCl”, the photoluminescence quantum yield was 0.03.

Take `ClC(Cl)=C1c2ccccc2C(C2(Cl)c3ccccc3C(=C(Cl)Cl)c3ccccc32)c2ccccc21` (configuration not stated): the photoluminescence quantum yield is, setting by setting: (in C1CCCCC1) 0.3; (in CCCCCO) 0.25; (in CCCCO) 0.21; (in CCCO) 0.19; (in CCO) 0.17; (in CO) 0.15.

Under “in ClC(Cl)Cl”, `O=CC1=Cc2cocc2C=C(C=O)C1` yielded a photoluminescence quantum yield of 0.

`COc1ccc(-n2nc(C#N)c(N3CCN(c4ccccn4)CC3)n2)cc1`: the photoluminescence quantum yield (in CC#N) is 0.064.

In the case of `COc1ccc(-c2c3ccc(=[N+]4CCCCC4)cc-3oc3cc(N4CCCCC4)ccc23)cc1`, the photoluminescence quantum yield by setting is: (in CCO) 0.31; (in ClCCl) 0.91.

The compound `c1ccc(C2=Nc3cccc4[n+]3[B-](c3ccccc3)(N2)NC(c2ccccc2)=N4)cc1` registered a photoluminescence quantum yield (in ClCCl) of 0.13.

Take `COc1c2ccccc2c(OC)c2c(C#Cc3ccccc3)c3cc4sccc4cc3c(C#Cc3ccccc3)c12`: the photoluminescence quantum yield reads like this: (in C1CCOC1) 0.13; (in Cc1ccccc1) 0.1; (in ClCCl) 0.11.

Turning to `OB(O)c1ccc(-c2ccc(N(c3ccccc3)c3ccccc3)cc2)cc1`, the photoluminescence quantum yield is, setting by setting: (in C1CCCCC1) 0.72; (in C1CCOC1) 0.65; (in CC#N) 0.68; (in CCO) 0.81; (in CCOC(C)=O) 0.66; (in CCOCC) 0.65. Besides, under “in CO”, the photoluminescence quantum yield was determined as 0.62.

`c1cc2c3c(c1)ccc1[n+]3[B-]3(Oc4cccc5ccc6[n+](c45)[B-](O2)(O3)n2c-6cc3c4ccccc4c4ccccc4c32)n2c-1cc1c3ccccc3c3ccccc3c12` registered a photoluminescence quantum yield (in ClCCl) of 0.89.

On to `N#Cc1cc2nc3c(nc2cc1C#N)C1c2ccc(N(c4ccccc4)c4ccccc4)cc2C3c2ccc(N(c3ccccc3)c3ccccc3)cc21`, for which the photoluminescence quantum yield was 0.44 (in C1CCCCC1), 0.01 (in CC#N), 0.35 (in Cc1ccccc1) and 0.02 (in ClCCl).

The compound `CC(C)(C)OC(=O)CN1CCN(c2ccc3c(-c4ccc(I)cc4)c4ccc(=[N+]5CCN(CC(=O)OC(C)(C)C)CC5)cc-4oc3c2)CC1` returned a photoluminescence quantum yield (in ClCCl) of 0.007.

For the compound `F[B-]1(F)Oc2c(-c3cccc4c3O[B-](F)(F)[n+]3c(-c5ccccc5)c(-c5ccccc5)n(-c5ccc(C(F)(F)F)cc5)c3-4)cccc2-c2n(-c3ccc(C(F)(F)F)cc3)c(-c3ccccc3)c(-c3ccccc3)[n+]21`, the photoluminescence quantum yield (in C1CCOC1) came out at 0.68.

Where the note is “in ClC(Cl)Cl”, `Cc1nc2c(ccc3c2sc(/C=C/c2ccc(N(C)C)cc2)[n+]3C)s1` registered a photoluminescence quantum yield of 0.02.

`COc1ccc(/C=C/C(F)(F)F)c(N)c1` registered a photoluminescence quantum yield (in C1CCOC1) of 0.32.

As to `c1ccc2c(-c3ccc4sc5ccc(-c6c7ccccc7cc7ccccc67)cc5c4c3)c3ccccc3cc2c1`, the photoluminescence quantum yield reads like this: (in C1CCCCC1) 0.47; (in CC#N) 0.5; (in ClCCl) 0.57.

For `Cc1c2ccccc2c(C2=C3C=CC=[N+]3[B-](F)(F)n3cccc32)c2ccccc12`, the photoluminescence quantum yield stood at 0.001 (in CC#N); 0.041 (in CCCCCC); 0.002 (in CCO); 0.002 (in CN(C)C=O); 0.007 (in Cc1ccccc1); 0.005 (in ClCCl).

`CCNc1cc2oc(=O)c3c(=O)oc4ccccc4c3c2cc1C`: the photoluminescence quantum yield by setting is: (in CS(C)=O) 0.27; (in ClCCl) 0.84.
